Active and inactive are the calls of the source.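 How the source made its calls: active means compounds giving half or more protection of infected cells from virus-caused growth loss, again on retest; inactive means the rest.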

This test concerns CEM cells HIV-1 protection, formazan growth assay. The experiment in a line: NCI AIDS Antiviral Assay. Particulars: for IC50: measured here: growth of uninfected CEM cells. Put shortly: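 Protection of CEM cells against HIV-1 was scored from cell growth (soluble formazan) across five concentrations, with parallel uninfected cells. Lack of protection may reflect toxicity.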

As to `Cc1ccc(S(=O)(=O)N2CCCC2C(=O)NNC(N)=S)cc1` (centres undefined), the EC50 was over 200 µM and the IC50 turned out to be 117 µM.
On to `CNC(=S)SSSC(=S)NC`, for which the outcome was inactive.
Take `CCCCC[C@@H]1CCC[C@H]2NC(CCCCC3OCCO3)CC[C@@H]12` (some centres undefined): the result was inactive.
For the compound `Cc1cn(C2CC(Sc3cn[nH]n3)C(CO)O2)c(=O)[nH]c1=O` (centres undefined), the EC50 was over 380 µM and the IC50 came out at 75.9 µM.
Consider `S=C=Nc1ccc(SSc2ccc(N=C=S)cc2)cc1`, for which the EC50 is over 13.5 µM and the IC50 was 11.2 µM.
On to `N#Cc1c(N2CCCC2)nsc1Nc1ccc(F)cc1`, for which the EC50 was over 200 µM and the IC50 is over 200 µM.
For `CSCCC(NCc1c(O)ccc2ccc(=O)oc12)C(=O)O` (centres undefined), the EC50 is over 200 µM and the IC50 is over 200 µM.
As to `COc1cc2c(cc1OC)-c1c3cc(O)ccc3nn[n+]1CC2`, the result was inactive.
For the compound `CC(=O)C(=Cc1ccc([N+](=O)[O-])cc1)C(C)=O`, the EC50 was over 155 µM and the IC50 was 27.5 µM.
As for `N#Cc1cccc(Nc2ccccc2SSc2ccccc2Nc2cccc(C#N)c2)c1`, the EC50 was over 58.9 µM and the IC50 is 4.79 µM.
In the case of `CCNC(=O)COc1cc2c(O)c3c(O)c(C)c4c(c13)C(=O)C(C)(O/C=C/C(OC)C(C)C(OC(C)=O)C(C)C(O)C(C)C(O)C(C)/C=C/C=C(\C)C(=O)N2)O4` (centres undefined), the EC50 is over 200 µM and the IC50 worked out at 83.2 µM.
Take `C=CCN1COc2c(cc3c4c(cccc24)C(=O)O3)C1`: the EC50 is over 26.9 µM and the IC50 stood at 4.27 µM.
Take `CSc1nc(NC2OCC(O)C(O)C2O)c(N)c(=O)[nH]1` (centres undefined): the result was inactive.
Turning to `O=c1[nH]cnc2c1ncn2C1CCC(CO)O1` (centres undefined), the EC50 was 6.03 µM and the IC50 was determined as 50.1 µM.
For `COc1cc(C2c3cc4c(cc3C(O)[C@H]3COC(=O)[C@@H]23)OCO4)cc(OC)c1O` (some centres undefined) the same measures were over 200 µM and 1.12 µM.
Consider `O=C(CNc1ccccc1C(=O)O)Nn1cnc2ccc(S(=O)(=O)Nc3ccccc3C(=O)O)cc2c1=O`, for which the EC50 was over 200 µM and the 50% inhibitory concentration (IC50) was over 200 µM.
`O=C=Nc1cc(S(=O)(=O)c2ccc(Cl)c(N=C=O)c2)ccc1Cl`: the EC50 was over 200 µM and the IC50 is over 200 µM.
For the compound `c1ccc2c(c1)SCCC2NC1=NCCO1` (centres undefined), the EC50 is over 200 µM and the IC50 came out at 162 µM.
As to `C=C1CC(c2ccc(OCCCN3C(=O)c4ccccc4C3=O)c(OC)c2)OC1=O` (centres undefined), the EC50 is over 20 µM and the IC50 came to 0.912 µM.
Turning to `c1ccc(C2N3CCCCC3[C@@H]3c4[nH]c5ccccc5c4CCN23)cc1` (some centres undefined), the EC50 is over 20.9 µM and the IC50 is over 20.9 µM.
For the compound `N[C@H]1C2C3CC4C5CC(C42)C1(c1ccccc1)C53` (some centres undefined), the EC50 was over 661 µM and the IC50 was determined as 53.7 µM.
For `CC(=O)C(=[N+]=[N-])C(=O)N(C)CCC#N` the same measures were over 200 µM and over 200 µM.
For `O=C(C1C(c2ccccc2)N1C(c1ccccc1)c1ccccc1)C1C(c2ccccc2)N1C(c1ccccc1)c1ccccc1` (centres undefined) the same measures were over 3.39 µM and over 3.39 µM.
Turning to `O=C1CC(c2c[nH]c3ccccc23)C(=O)N1c1ccccc1` (centres undefined), the result was inactive.
Consider `COc1ccc(C(C(N)=O)N2CCCCC2)cc1` (centres undefined), for which the EC50 was over 200 µM and the IC50 is over 200 µM.
On to `CCOC(=O)CCC(NC(=O)c1ccc(N=Cc2nc3ccccc3nc2-c2ccccc2)cc1)C(=O)OCC` (centres undefined), for which the EC50 is over 12.6 µM and the IC50 is over 12.6 µM.
For the compound `O=c1[nH]c(Br)nc2n[nH]nc12`, the EC50 is over 200 µM and the IC50 is 4.9 µM.
For `O=C1CCC(c2ccc(Cl)cc2)=NN1c1nsc2ccccc12` the same measures were over 39.8 µM and over 39.8 µM.
For `CC(C)CS(=O)(=O)/C(=C(\c1ccc(Br)cc1)S(=O)(=O)CC(C)C)c1ccc(Br)cc1` the same measures were over 1.29 µM and over 1.29 µM.
With `CCC12CC[C@H](C#N)N3CCc4c(n(c5ccccc45)C(=O)C1)C32` (some centres undefined), the outcome was inactive.

The term EC50 denotes the concentration at which the effect is half-maximal. For orientation: IC50 means the concentration at which inhibition is half-maximal. The low end stands for inhibition by little substance, the high end for a need for much substance.
